From ChEMBL document CHEMBL1201862, “PubChem BioAssay data set” (2004)
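These data come from cells grown in 96-well plates and exposed to compound for 48 hours at five concentrations. GI50: concentration for 50% inhibition of growth.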 Calls of active or inactive are those of the source. Rule as the data show it: active = GI50 up to about 1.1 µM and inactive = higher.

Legend:
Experiment in all cases: NCI anticancer screen, dose series, 48 h
[1] = test system: SNB-75
[2] = test system: U-251
[3] = test system: NCI-H226
[4] = test system: MCF7
[5] = test system: CCRF-CEM
[6] = test system: SK-OV-3
[7] = test system: BT-549
[8] = test system: HOP-92
[9] = test system: DU-145
[10] = test system: TK-10
[11] = test system: SNB-19
[12] = test system: KM12
[13] = test system: Malme-3M
[14] = test system: SF-268
[15] = test system: OVCAR-5
[16] = test system: HCT-15
[17] = test system: A498
[18] = test system: 786-0
[19] = test system: HT-29
[20] = test system: OVCAR-3

Compound | GI50 [1] | GI50 [2] | GI50 [3] | GI50 [4] | GI50 [5] | GI50 [6] | GI50 [7] | GI50 [8] | GI50 [9] | GI50 [10] | GI50 [11] | GI50 [12] | GI50 [13] | GI50 [14] | GI50 [15] | GI50 [16] [µM] | GI50 [17] | GI50 [18] | GI50 [19] | GI50 [20]
CCN(CC)CCn1ccc(=O)c2cc3c(=O)ccn(CCN(CC)CC)c3c(C)c21 | 9.91 µM (inactive) | 5.89 µM (inactive) | 10.9 µM (inactive) | 20.8 µM (inactive) | 1.77 µM (inactive) | 4.13 µM (inactive) | 14.5 µM (inactive) | 7.69 µM (inactive) | 5.19 µM (inactive) | 7.43 µM (inactive) | 5.15 µM (inactive) | 0.993 µM (active) | 15 µM (inactive) | 4.07 µM (inactive) | 14.1 µM (inactive) | 3.38 | 15.5 µM (inactive) | 1.92 µM (inactive) | 2.81 µM (inactive) | 8.55 µM (inactive)
OC1(c2ccccc2)CCN(Cc2c[nH]c3ccccc23)CC1 | > 100 µM (inactive) | 64.4 µM (inactive) | > 100 µM (inactive) | 50.5 µM (inactive) | > 100 µM (inactive) | > 100 µM (inactive) | > 100 µM (inactive) | > 100 µM (inactive) | > 100 µM (inactive) | > 100 µM (inactive) | > 100 µM (inactive) | 75.3 µM (inactive) | 23.2 µM (inactive) | > 100 µM (inactive) | > 100 µM (inactive) | 49.5 | 92.3 µM (inactive) | 44 µM (inactive) | 42.9 µM (inactive) | > 100 µM (inactive)
CC(=O)C1=C(C)N2C(=NC3=C(CCc4ccccc43)C2c2ccc(Cl)cc2)S1 (stereo not given) | > 32.5 µM (inactive) | > 67.5 µM (inactive) | > 100 µM (inactive) | 20.5 µM (inactive) | 8.41 µM (inactive) | > 100 µM (inactive) | > 100 µM (inactive) | 31 µM (inactive) | > 100 µM (inactive) | > 100 µM (inactive) | > 100 µM (inactive) | 33.3 µM (inactive) | 48.5 µM (inactive) | > 87.9 µM (inactive) | > 100 µM (inactive) | 29.2 | 20.7 µM (inactive) | > 52.4 µM (inactive) | 7.45 µM (inactive) | > 38.7 µM (inactive)
CCOC(=O)/C=C(\C(=O)OCC)n1cc(C)c(=O)n(Cc2cn(CCCCOC(C)=O)nn2)c1=O | 15.7 µM (inactive) | 15.1 µM (inactive) | 11.3 µM (inactive) | 5.47 µM (inactive) | 1.83 µM (inactive) | 32.4 µM (inactive) | 10.5 µM (inactive) | 2.15 µM (inactive) | 19.8 µM (inactive) | 7.38 µM (inactive) | 20 µM (inactive) | 18.5 µM (inactive) | 2.04 µM (inactive) | 14.2 µM (inactive) | 12.4 µM (inactive) | 6.37 | 18.9 µM (inactive) | 4.43 µM (inactive) | 8.32 µM (inactive) | 13.3 µM (inactive)
N#Cc1nc(C#N)c(N)[nH]1 | > 100 µM (inactive) | > 100 µM (inactive) | > 100 µM (inactive) | > 100 µM (inactive) | > 100 µM (inactive) | > 100 µM (inactive) | > 100 µM (inactive) | > 100 µM (inactive) | > 100 µM (inactive) | > 100 µM (inactive) | > 100 µM (inactive) | > 100 µM (inactive) | > 100 µM (inactive) | > 100 µM (inactive) | > 100 µM (inactive) | > 100 | > 100 µM (inactive) | > 100 µM (inactive) | > 100 µM (inactive) | > 100 µM (inactive)
COC(=O)C1=C(O)C(C(=O)OC)[C@@]2(O)[C@@H](C(=O)OC)C(c3ccc(OC(=O)/C=C/c4ccccc4)cc3)C[C@@H]1[C@@H]2C(=O)OC (stereo not given in full) | 29.6 µM (inactive) | 6.15 µM (inactive) | 22.6 µM (inactive) | 2.99 µM (inactive) | 2.68 µM (inactive) | 75.5 µM (inactive) | 8.22 µM (inactive) | 29.4 µM (inactive) | 11 µM (inactive) | 6.82 µM (inactive) | 20.6 µM (inactive) | 5.37 µM (inactive) | 25.1 µM (inactive) | 9.79 µM (inactive) | 12.1 µM (inactive) | 3.89 | 34.8 µM (inactive) | 10 µM (inactive) | 3.66 µM (inactive) | 9.77 µM (inactive)
CN(C)CCn1c(=O)c2ccc(NCCNCCO)c3c(=O)c4cc(O)ccc4n(c1=O)c23 | 1.2 µM (inactive) | 0.931 µM (active) | 0.839 µM (active) | 0.465 µM (active) | 0.258 µM (active) | 5.55 µM (inactive) | 10.9 µM (inactive) | 0.61 µM (active) | 0.875 µM (active) | 4.63 µM (inactive) | 1.04 µM (active) | 3.57 µM (inactive) | 2.42 µM (inactive) | 0.393 µM (active) | 1.79 µM (inactive) | 5.31 | 1.93 µM (inactive) | 0.617 µM (active) | 0.665 µM (active) | 2.55 µM (inactive)
